This passage reports TGI and GI50 results from PubChem BioAssay (NCI).

The structures appear in SMILES notation. Converted amounts (≈) assume the structure as drawn.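 Exposure lasted 48 hours, with cells grown in 96-well plates and compounds tested at five concentrations. GI50 = concentration required for 50% inhibition of growth. At the TGI there is no net growth.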

Among the test systems are HOP-18 NSCLC; KM20L2 colon; M19-MEL melanoma; DMS 273 small cell lung; XF 498 CNS; HS 578T breast; MDA-N; T-47D breast.
What all share (assay): growth of human tumour cells (NCI), 48 h

On to `COc1ccc(-c2oc3cc(O)c(OC)c(O)c3c(=O)c2OC2OC(CO)C(O)C(O)C2O)cc1` (centres undefined), for which the TGI with HOP-18 NSCLC, with KM20L2 colon, in the experiment on M19-MEL melanoma and in the experiment on DMS 273 small cell lung was above 100 µM each time.
As for `CCCCN(CCCC)C(=O)C(=O)CC(=O)c1ccc(Br)cc1`, the TGI with HOP-18 NSCLC, in the experiment on KM20L2 colon, in the experiment with M19-MEL melanoma, in the experiment with DMS 273 small cell lung and in the experiment with XF 498 CNS was above 100 µM each time.
On to `N[C@H]1C2C3CC4C5CC(C42)C1(c1ccccc1)C53` (some centres undefined), for which the TGI with HOP-18 NSCLC, with KM20L2 colon, in the experiment with M19-MEL melanoma, in the experiment on DMS 273 small cell lung and in the experiment on XF 498 CNS was above 100 µM in each case.
Take `COC1C=C(Nc2cccc(Cl)c2)C(=O)C1` (centres undefined): the TGI in the experiment with HOP-18 NSCLC was 76.2 µM; in the experiment with KM20L2 colon it was above 100 µM; in the experiment on M19-MEL melanoma, above 100 µM; with DMS 273 small cell lung, above 100 µM; in the experiment on XF 498 CNS it was 77 µM.
On to `C/C(=N\NC(=S)Nc1ccc(C(=O)O)cc1)c1ccccn1`, for which the TGI is 97.5 µM with HOP-18 NSCLC; 78.9 µM with KM20L2 colon; 49.7 µM in the experiment with M19-MEL melanoma; 51.8 µM in the experiment on DMS 273 small cell lung; 63.7 µM in the experiment on XF 498 CNS.
The corresponding values for `CCOP(=O)(OCC)C1C(=O)O[C@H]2CCCC[C@@H]12` (some centres undefined) are above 100 µM, above 100 µM, above 100 µM, above 100 µM and above 100 µM.
Taken in the same sequence, the figures for `Cc1cc(C)nc(NS(=O)(=O)c2ccc(Nc3c4ccccc4nc4c(C(=O)Nc5ccc(S(N)(=O)=O)cc5)cccc34)cc2)n1` were above 100 µM, above 100 µM, above 100 µM, above 100 µM and above 100 µM.
For `ClC(=Nc1cccc2ccccc12)N(c1ccccc1)c1ccccc1`, the TGI in the experiment on HS 578T breast, with MDA-N and with T-47D breast was above 100 µM in each case.
`COC(=O)Nc1nc2ccc(C(=O)c3ccc[nH]3)cc2[nH]1`: the TGI in the experiment on HS 578T breast is above 100 µM; in the experiment with MDA-N, 0.419 µM; with T-47D breast, above 100 µM.
Regarding `CC1(C)CC(=O)C2=C(C1)NC(SSC1=C(C#N)C(c3ccccc3)C3=C(CC(C)(C)CC3=O)N1)=C(C#N)C2c1ccccc1` (centres undefined), the GI50 is 30.5 µg/mL (≈ 49.2 µM) in the experiment with HS 578T breast, 21 µg/mL (≈ 33.9 µM) in the experiment on MDA-N and 30.7 µg/mL (≈ 49.5 µM) with T-47D breast. Also, the TGI is 68.1 µg/mL in the experiment on HS 578T breast, 40.4 µg/mL with MDA-N and 62.4 µg/mL in the experiment with T-47D breast.
With `CCOC(=O)Cc1c(Cc2[nH]c(C(=O)OCc3ccccc3)c(CC(=O)OCC)c2CC(=O)OCC)[nH]c(C(=O)OCc2ccccc2)c1CC(=O)OCC`, the TGI in the experiment on HOP-18 NSCLC, in the experiment with KM20L2 colon and in the experiment with M19-MEL melanoma was above 100 µM throughout.
Turning to `CC1=COC(=O)c2ccccc2N1`, the TGI with KM20L2 colon, in the experiment on M19-MEL melanoma and with DMS 273 small cell lung was above 100 µM throughout.
With `C=C(c1ccccc1N)[C@@]1(O)C[C@H](/C(=C\C)CO)C[C@@H]1NCc1ccccc1`, the TGI in the experiment with HOP-18 NSCLC amounted to 52.4 µM; in the experiment on KM20L2 colon, 42.6 µM; with M19-MEL melanoma, 62.1 µM; with DMS 273 small cell lung it was 84.5 µM.
As for `N#Cc1ccccc1NC(=O)C(=O)C(C(=O)c1ccccc1-c1ccccc1)C1OC(=O)c2ccccc21` (centres undefined), the values for the TGI in the experiment on KM20L2 colon, in the experiment with M19-MEL melanoma and with XF 498 CNS were 40.8 µM, 35.3 µM and 33.6 µM, respectively.
Consider `CCCCCCC(=O)C/C(CCC(=O)N(Cc1ccccc1)Cc1ccccc1)=N\Nc1ccc([N+](=O)[O-])cc1[N+](=O)[O-]`, for which the TGI in the experiment on HOP-18 NSCLC, in the experiment with KM20L2 colon, in the experiment on M19-MEL melanoma and in the experiment with DMS 273 small cell lung was above 100 µM each time.
As for `Cc1ccc(S(=O)(=O)N/N=C/C(Br)=C(/Br)C(=O)O)cc1`, the TGI turned out to be 45.2 µM with HS 578T breast, 18.8 µM in the experiment with MDA-N and 23.3 µM with T-47D breast.
With `CC(=O)[CH-]C(=O)c1ccccc1.CC(=O)[CH-]C(=O)c1ccccc1.CCN(CC)CC[O-].CCN(CC)CC[O-].Cl.[Ti+4]`, in the experiment on KM20L2 colon, the GI50 was 28.9 µM and the TGI is above 100 µM. Also, in the experiment with M19-MEL melanoma, the GI50 is 17.6 µM and the TGI stood at 52.2 µM.
`CC(Cc1ccc(Cl)cc1Cl)NO` (centres undefined): the TGI in the experiment with HS 578T breast, in the experiment on MDA-N and with T-47D breast was above 100 µM each time.
Turning to `Cn1nc(-c2ccccc2NC(=O)C(F)(F)F)c(=O)n(C)c1=S`, the TGI is 48.7 µM in the experiment with M19-MEL melanoma, above 100 µM in the experiment with DMS 273 small cell lung and 36.9 µM in the experiment on XF 498 CNS.
As for `Nc1nc(N)[n+]([O-])c(N)c1NCO`, the TGI with HS 578T breast, in the experiment with MDA-N and in the experiment on T-47D breast was above 100 µM each time.
